Data on one compound can be found in patent publication EP3727588B1, “ACTIVATOR PEPTIDES OF THE ENZYME ADAM 10 AND RELATED USES IN THE TREATMENT OF ALZHEIMER'S DISEASE” (UNIVERSITA' DEGLI STUDI DI MILANO, priority 2017, dated 2019).

Peptide text beside a SMILES is read from it.

Data set [1] has as its target T1, ADAM10/AP2 complex (Rattus norvegicus, UniProt P62944).
T1 construct: endogenous in cells; host or cells: primary hippocampal neurons of rat embryos, DIV14
Description: co-immunoprecipitation of ADAM10 with AP2 subunits in primary cultures of hippocampal neurons. It is filed as cell-based. On the procedure: The primary cultures were prepared from hippocampi of rat embryos as described in [20]. The cultures were grown in media containing Neurobasal (Life Technologies), B27 2% (Life Technologies), GlutaMAX 1% (Life Technologies) and Penicillin/Streptomycin 1% (Pen/Strep; Life Technologies), a 37 °C with 95% humidity and 5% CO2 for 14 days. The cells were treated by diluting the peptides in the complete growth medium, at a final concentration of 1 µM. The treatment was performed for 30 minutes at 37°C, then the neurons were lysed.
(§1) For the co-immunoprecipitation experiments, aliquots of 40-100 µg of lysate were incubated at 4°C in RIA 1X buffer (NaCl 200 mM, EDTA 10 mM, Na2HPO4 10 mM, Nonidet P-40, 0.5% and 0.1% SDS) in a final volume of 150 µl with 1-2 µg of antibody. The following day the protein complex A/G (Santa Cruz Biotechnology) was added, conjugated with agarose marbles, and the incubation was continued for 2 hours. After three washes with RIA buffer the samples were loaded onto SDS-PAGE and analysed through Western Blot.
(§2) The quantization of the Western Blot analyses was performed through an image analysis program (ImageLab -BioRad). The levels of proteins were expressed as optical density (OD) related to the different measurements and were normalized on respective tubulin levels.
After 30 minutes, the cells were processed and the cell lysate was used for performing the co-IP analyses.

Data set [2] deals with T2, ADAM10/AP2 complex (Rattus norvegicus).
T2 construct: endogenous in cells; host or cells: primary hippocampal neurons of rat embryos, DIV14
T2 sequence (P18484 whole entry): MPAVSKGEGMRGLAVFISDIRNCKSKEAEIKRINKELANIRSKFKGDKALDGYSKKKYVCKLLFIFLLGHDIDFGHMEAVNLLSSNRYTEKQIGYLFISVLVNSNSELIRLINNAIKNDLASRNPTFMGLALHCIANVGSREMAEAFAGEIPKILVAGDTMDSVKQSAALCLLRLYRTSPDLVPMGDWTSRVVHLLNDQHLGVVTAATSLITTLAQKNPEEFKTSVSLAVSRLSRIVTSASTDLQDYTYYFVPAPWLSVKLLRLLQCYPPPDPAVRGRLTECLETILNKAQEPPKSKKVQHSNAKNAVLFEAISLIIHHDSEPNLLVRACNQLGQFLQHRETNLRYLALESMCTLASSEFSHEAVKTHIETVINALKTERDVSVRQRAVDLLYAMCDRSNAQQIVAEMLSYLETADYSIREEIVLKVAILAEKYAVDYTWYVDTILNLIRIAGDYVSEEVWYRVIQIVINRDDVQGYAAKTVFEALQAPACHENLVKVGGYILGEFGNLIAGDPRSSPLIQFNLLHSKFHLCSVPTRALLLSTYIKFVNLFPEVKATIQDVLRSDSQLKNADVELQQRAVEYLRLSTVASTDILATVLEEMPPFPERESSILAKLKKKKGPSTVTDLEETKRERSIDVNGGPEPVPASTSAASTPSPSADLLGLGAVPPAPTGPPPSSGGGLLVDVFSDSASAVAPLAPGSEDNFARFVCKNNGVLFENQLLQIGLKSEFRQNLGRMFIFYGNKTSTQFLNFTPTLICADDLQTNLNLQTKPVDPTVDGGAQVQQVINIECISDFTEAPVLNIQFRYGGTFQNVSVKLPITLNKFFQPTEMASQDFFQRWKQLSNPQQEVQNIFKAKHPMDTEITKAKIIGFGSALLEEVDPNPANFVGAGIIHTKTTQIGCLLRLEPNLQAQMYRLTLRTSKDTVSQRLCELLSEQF
T2 sequence (P62744 whole entry, further chain): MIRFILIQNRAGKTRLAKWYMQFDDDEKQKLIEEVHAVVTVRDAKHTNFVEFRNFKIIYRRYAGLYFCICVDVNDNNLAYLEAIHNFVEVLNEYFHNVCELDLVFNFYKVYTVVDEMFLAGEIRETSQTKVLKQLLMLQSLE
T2 sequence (P84092 whole entry, further chain): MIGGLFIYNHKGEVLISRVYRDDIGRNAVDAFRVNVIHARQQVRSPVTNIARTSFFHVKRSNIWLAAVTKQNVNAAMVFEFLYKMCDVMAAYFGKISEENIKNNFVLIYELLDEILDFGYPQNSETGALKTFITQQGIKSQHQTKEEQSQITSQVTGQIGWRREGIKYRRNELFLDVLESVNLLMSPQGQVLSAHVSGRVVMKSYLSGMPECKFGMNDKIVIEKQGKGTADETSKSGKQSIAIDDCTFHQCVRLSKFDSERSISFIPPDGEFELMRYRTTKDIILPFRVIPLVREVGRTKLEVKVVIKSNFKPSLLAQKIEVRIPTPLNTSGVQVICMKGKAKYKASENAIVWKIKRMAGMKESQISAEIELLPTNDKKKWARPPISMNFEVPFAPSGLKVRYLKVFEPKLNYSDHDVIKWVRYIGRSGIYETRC
T2 sequence (P62944 whole entry, further chain): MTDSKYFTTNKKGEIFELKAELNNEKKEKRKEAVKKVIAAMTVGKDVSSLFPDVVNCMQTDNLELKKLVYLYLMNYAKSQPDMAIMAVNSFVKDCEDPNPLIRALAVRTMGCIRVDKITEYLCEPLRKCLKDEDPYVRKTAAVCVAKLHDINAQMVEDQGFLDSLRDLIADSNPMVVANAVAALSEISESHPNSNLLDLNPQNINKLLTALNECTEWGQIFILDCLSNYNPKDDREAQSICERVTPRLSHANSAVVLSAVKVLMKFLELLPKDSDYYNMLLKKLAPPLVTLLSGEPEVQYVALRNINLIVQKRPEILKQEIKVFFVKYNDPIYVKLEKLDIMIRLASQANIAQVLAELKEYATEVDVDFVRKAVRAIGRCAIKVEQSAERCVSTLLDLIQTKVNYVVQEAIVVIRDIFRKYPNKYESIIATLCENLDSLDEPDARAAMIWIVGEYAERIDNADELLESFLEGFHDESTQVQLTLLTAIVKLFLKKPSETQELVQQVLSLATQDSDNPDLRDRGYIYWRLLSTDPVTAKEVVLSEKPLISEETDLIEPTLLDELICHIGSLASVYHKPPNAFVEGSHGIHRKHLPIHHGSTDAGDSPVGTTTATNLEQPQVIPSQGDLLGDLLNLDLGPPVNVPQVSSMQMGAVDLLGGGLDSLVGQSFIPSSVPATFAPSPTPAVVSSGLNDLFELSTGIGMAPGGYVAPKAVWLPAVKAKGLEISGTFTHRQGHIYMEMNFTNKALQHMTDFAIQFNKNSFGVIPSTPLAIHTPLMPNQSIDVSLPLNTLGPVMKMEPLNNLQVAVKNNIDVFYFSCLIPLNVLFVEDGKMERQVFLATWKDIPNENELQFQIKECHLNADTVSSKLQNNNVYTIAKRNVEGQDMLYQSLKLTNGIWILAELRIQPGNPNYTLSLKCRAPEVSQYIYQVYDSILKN
Description: co-immunoprecipitation of ADAM10 with AP2 (α-adaptin) in acute hippocampal slices. To be noted: 10 µM, 30 min. It is filed as cell-based. On the procedure:
(§3) The acute hippocampal slices were obtained from rat brain. After carefully removing the meninges, the hippocampus was isolated and dissected using the McIlwain tissue chopper. The hippocampal slices were then transferred into supports containing Krebs buffer, in the presence of a constant flow of 95% O2 and 5% CO2 5% (v/v). The acute slices were kept for 45 min at ambient temperature before proceeding with treatment with the peptide.
(§4) For the treatments of the acute hippocampal slices, all the peptides were diluted in Krebs buffer at a concentration of 10µM. The treatments were performed for 30 minutes and subsequently the sample was immediately frozen.
as §1, §2
(§5) The samples were then processed, and the total homogenate was used to evaluate the interaction levels between ADAM10 and the complex AP2. The co-immunoprecipitation experiment (co-IP), performed using an anti-ADAM10 antibody, made it possible to verify that two of the three peptides (PEP2 (SEQ ID NO:2) and PEP3 (SEQ ID NO:1)) were able to interfere with the interaction between ADAM10 and α-adaptin, one of the subunits that constitutes the complex AP2 (Figure 1A).

The target in data set [3] is T1, ADAM10/AP2 complex. The data set is described as above. The conditions noted are these: 10 µM, 30 minutes. In kind it is cell-based. On the procedure:
as §3, §4, §1, §2, §5

The nature of data set [4]: blood-brain barrier crossing, anti-TAT immunohistochemistry on coronal brain sections. It is filed as in vivo. To be noted: C57BL/6 mice, intraperitoneal injection 3 nmoles/g, 24 hours. On the procedure:
For the immunohistochemistry analyses, mice treated with the peptide were anaesthetized deeply and subjected to transcardial perfusion with 4% paraformaldehyde (prepared in PBS, pH 7.2-7.4), through the use of a peristaltic pump. The fixing liquid was inserted into the blood circulation through the left ventricle and after 10 minutes the brain was isolated. The sample was then post-fixed for 1 hour and 30 minutes at 4°C, then washed with PBS 1X and placed o/n in a 30% sucrose solution. The following day the sample was washed again with PBS 1X cut with the vibratome obtaining coronal sections of 50µm. Then the sections were stained through free-floating immunofluorescence technique. The fluorescence images were acquired using the Zeiss Confocal LSM510 Meta system with 63x objective at a resolution of 1024x1024 pixels. […]
The coronal sections were incubated with a specific antibody for the identification of the MAP2 neurons, and an antibody able to recognize the TAT sequence of HIV-1 present in the CPPs. As shown by the arrows in Figure 6, the presence of a specific signal of the anti-TAT antibody can be identified, which can only be detected in the coronal sections of brain of animals treated with CPPs. […] In the brain of animals only treated with saline solution (Figure 6, panel A), such signal cannot be detected.

Setting [5] is: primary hippocampal neurons DIV 14, 1 µM, 30 minutes.

T1 sequence (P18484 whole entry): as the sequence (P18484 whole entry) above
T1 sequence (P62744 whole entry, further chain): as the sequence (P62744 whole entry, further chain) above
T1 sequence (P84092 whole entry, further chain): as the sequence (P84092 whole entry, further chain) above
T1 sequence (P62944 whole entry): as the sequence (P62944 whole entry, further chain) above

`CC(C)C[C@H](NC(=O)[C@H](CCCNC(=N)N)NC(=O)[C@@H]1CCCN1C(=O)[C@H](CCCNC(=N)N)NC(=O)[C@H](CCC(N)=O)NC(=O)[C@H](CCCNC(=N)N)NC(=O)[C@@H]1CCCN1C(=O)[C@@H]1CCCN1C(=O)[C@H](CC(C)C)NC(=O)CNC(=O)[C@H](CO)NC(=O)CNC(=O)CNC(=O)[C@H](CCCNC(=N)N)NC(=O)[C@H](CCCNC(=N)N)NC(=O)[C@H](CCCNC(=N)N)NC(=O)[C@H](CCC(N)=O)NC(=O)[C@H](CCCNC(=N)N)NC(=O)[C@H](CCCNC(=N)N)NC(=O)[C@H](CCCCN)NC(=O)[C@H](CCCCN)NC(=O)[C@H](CCCNC(=N)N)NC(=O)CNC(=O)[C@@H](N)Cc1ccc(O)cc1)C(=O)O` [PEP2] (H-YGRKKRRQRRRGGSGLPPRQRPRL-OH): the “PEP/inPEP OD, ADAM10/AP2 complex, µ2” value in data set [1] (primary cultures of neurons, 1µM, 30 min) is 52.01 ± 3.77%. Further, in data set [1] (setting [5]), the “reduction in the levels of interaction between ADAM10 and the complex AP2, subunit µ2” value is 48%; the “reduction in the levels of interaction between ADAM10 and the complex AP2, subunit α-adaptin” value was 66%. Besides, the “PEP/inPEP ratio of optical density (OD), ADAM10/AP2 complex (α-adaptin)” value in data set [2] worked out at 41.60 ± 23.86%. Besides, the “reduction of the interaction between ADAM10 and α-adaptin” value in data set [3] came out at 58.4%. Besides, the “capacity to cross the blood-brain barrier (BBB)” value in data set [4] was “can cross the BBB and penetrate into the neuron cells”.
